Entries after “also recorded” stand apart in the source; their conditions may differ.
Assay: Solubility in solvents and monomer
Type: physicochemical

SMILES: C=C(C)C(=O)OCCOC(=O)c1ccc(C(=O)c2ccccc2)cc1 [HEMA-BBA, 1-(4-benzoylbenzoic acid)-2-methaacrylic acid-glycolester]
- Solubility in N-vinylpyrrolidone: only slowly soluble
- Solubility in THF: moderately soluble
- Solubility in acetone (acetone): insoluble
- Solubility in chloroform (chloroform): highly soluble
- Solubility in deionized water (deionized water): insoluble
- Solubility in ethanol (ethanol): insoluble
- Solubility in ethyl acetate (ethyl acetate): insoluble
- Solubility in n-heptane (n-heptane): slightly to sparingly soluble

SMILES: C=C(C)C(=O)NCCCNC(=O)c1ccc(C(=O)c2ccccc2)cc1 [APMA-BBC, N-[3-(4-benzoylbenzamido)propyl]methacrylamide]
- Solubility in N-vinylpyrrolidone: readily soluble; also recorded: Freely soluble
- Solubility in THF: Freely soluble

Source: patent publication EP4524128A1, “BENZOPHENONE CROSSLINKERS” (Hemoteq AG, priority 2023, dated 2025)
